We go through 7 compounds from BindingDB's records for patent US12398118 (Beijing Tide Pharmaceutical, 2025).

Where only a bound is given, the exact number is not on record here.

The target of test [1] is Rho-associated protein kinase 2 (Homo sapiens, UniProt O75116). The test can be described thus: Biological Assay. As to the method: Before the assay, the following working solutions as needed were formulated with corresponding reagents according to the instruction of the kinase detection kit: 1×kinase buffer, 5×STK-S2 substrate working solution (1.5 μM) and 5×ATP working solution (1.5 μM), 5×ROCK2 kinase working solution, 4×Streptavidin-XL665 working solution, and 4×STK-Ab-Cryptate 2 detection solution. Then the assay was performed according to the following procedure.A solution of a compound at a concentration of 10000 nM was prepared with the 1×kinase buffer containing 2.5% DMSO. Gradient dilution of the solution of the compound was performed with the kinase buffer containing DMSO, so as to obtain solutions of a test compound at 9 different concentrations. In addition to wells of test compounds, a positive well (containing all the reagents except the compound) and a negative well (containing all the reagents except the test compound and kinase) were set. Except for the control wells (positive and negative wells), a solution of a test compound (4 μL) was added to each of the reaction wells, and a solution of 2.5% DMSO was added to the control wells. Then the substrate ([…], i.e., 2 μL 5×STK-S2 substrate working solution) was added to each of the reaction wells. The 5×ROCK2 kinase working solution (2 μL, containing 1.4 ng ROCK2 kinase) was added to each of the reaction wells except for the negative well, the volume of which was made up with the 1×kinase buffer (2 μL). The 5×ATP working solution (2 μL) was added to each of the reaction wells, and the mixtures were incubated at room temperature for 2 hours. After the kinase reaction was complete, the 4×Streptavidin-XL665 working solution was added to each of the reaction wells, the solutions were mixed, followed by immediate addition of the 4×STK-Ab-Cryptate 2 detection solution (5 μL), and the mixtures were incubated at room temperature for 1 hour.

The target in test [2] is Rho-associated protein kinase 1 (Homo sapiens, UniProt Q13464). The test can be described thus: Biological Assay.
Chain of Rho-associated protein kinase 1 (Q13464 whole entry): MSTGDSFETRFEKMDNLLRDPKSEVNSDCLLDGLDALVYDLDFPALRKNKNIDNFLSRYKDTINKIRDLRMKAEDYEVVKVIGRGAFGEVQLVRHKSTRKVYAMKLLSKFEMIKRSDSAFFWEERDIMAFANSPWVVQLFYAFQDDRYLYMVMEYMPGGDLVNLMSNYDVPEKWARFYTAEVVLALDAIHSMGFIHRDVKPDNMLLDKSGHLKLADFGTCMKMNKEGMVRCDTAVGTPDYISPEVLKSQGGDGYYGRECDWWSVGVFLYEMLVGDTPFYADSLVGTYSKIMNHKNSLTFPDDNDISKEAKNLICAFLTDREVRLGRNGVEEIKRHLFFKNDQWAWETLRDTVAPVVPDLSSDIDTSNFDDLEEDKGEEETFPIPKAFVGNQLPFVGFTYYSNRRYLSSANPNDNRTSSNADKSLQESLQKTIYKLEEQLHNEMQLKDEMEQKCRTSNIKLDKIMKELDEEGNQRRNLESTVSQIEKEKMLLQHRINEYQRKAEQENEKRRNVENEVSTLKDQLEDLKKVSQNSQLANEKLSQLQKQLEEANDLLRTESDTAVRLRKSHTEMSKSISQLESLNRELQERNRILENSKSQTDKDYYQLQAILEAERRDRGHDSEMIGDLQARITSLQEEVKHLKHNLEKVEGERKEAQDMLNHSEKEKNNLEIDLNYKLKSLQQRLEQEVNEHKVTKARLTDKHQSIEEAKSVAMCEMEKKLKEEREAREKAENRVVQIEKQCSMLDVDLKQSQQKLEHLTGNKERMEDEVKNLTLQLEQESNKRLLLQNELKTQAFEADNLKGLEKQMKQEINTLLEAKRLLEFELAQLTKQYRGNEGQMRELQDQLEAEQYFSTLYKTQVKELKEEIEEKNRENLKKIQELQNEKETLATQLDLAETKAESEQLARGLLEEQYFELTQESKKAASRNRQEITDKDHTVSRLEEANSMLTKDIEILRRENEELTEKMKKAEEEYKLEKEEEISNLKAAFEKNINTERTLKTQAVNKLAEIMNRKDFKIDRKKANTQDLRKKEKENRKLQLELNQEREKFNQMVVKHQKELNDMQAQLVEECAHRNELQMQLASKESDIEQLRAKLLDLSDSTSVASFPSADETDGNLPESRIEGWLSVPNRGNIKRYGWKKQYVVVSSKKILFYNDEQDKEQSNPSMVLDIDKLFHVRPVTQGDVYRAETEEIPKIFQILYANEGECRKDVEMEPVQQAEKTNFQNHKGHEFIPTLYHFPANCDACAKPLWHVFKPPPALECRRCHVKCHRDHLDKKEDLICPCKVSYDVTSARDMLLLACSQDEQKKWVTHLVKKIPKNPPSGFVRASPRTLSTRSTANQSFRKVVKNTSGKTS

Chain of Rho-associated protein kinase 2 (O75116 whole entry): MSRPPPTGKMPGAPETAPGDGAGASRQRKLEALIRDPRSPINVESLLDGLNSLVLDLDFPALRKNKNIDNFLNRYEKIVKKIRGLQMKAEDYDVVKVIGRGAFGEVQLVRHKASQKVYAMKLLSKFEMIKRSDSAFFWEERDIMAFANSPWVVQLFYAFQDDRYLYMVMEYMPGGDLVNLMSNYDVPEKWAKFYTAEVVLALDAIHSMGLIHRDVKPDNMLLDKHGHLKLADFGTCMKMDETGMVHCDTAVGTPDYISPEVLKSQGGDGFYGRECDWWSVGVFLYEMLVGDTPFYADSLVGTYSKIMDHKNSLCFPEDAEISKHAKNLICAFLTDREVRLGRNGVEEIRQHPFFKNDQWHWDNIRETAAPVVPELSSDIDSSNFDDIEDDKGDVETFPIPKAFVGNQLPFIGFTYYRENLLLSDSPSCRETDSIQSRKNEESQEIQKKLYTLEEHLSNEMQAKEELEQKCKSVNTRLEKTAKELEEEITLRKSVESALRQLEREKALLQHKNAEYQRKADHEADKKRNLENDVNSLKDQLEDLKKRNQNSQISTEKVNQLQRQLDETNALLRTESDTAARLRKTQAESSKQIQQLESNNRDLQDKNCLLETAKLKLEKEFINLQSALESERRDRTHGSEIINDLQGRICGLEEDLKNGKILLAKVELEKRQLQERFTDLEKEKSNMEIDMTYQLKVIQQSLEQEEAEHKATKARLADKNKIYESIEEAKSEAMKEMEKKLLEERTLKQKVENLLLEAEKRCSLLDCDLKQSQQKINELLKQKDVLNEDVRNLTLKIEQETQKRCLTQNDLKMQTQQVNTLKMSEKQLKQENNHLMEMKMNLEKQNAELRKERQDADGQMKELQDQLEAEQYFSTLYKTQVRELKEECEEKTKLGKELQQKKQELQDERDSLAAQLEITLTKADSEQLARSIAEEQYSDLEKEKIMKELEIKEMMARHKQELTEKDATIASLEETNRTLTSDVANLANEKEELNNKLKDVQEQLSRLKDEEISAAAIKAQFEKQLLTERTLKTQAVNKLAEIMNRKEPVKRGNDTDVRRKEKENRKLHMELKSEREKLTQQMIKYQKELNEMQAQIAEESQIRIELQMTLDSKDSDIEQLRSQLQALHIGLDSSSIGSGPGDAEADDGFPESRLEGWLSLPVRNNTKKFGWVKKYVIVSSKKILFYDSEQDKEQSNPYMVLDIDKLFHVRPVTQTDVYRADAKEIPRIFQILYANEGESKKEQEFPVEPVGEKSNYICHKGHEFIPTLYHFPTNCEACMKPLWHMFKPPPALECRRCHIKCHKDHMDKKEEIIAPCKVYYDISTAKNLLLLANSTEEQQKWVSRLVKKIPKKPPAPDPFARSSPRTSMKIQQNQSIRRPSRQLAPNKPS

With `CC(C)(C)OC(=O)N1CCc2sc(-c3ncc(F)c(Nc4ccc5c(N)nccc5c4)n3)cc2C1` [US12398118, Compound C45], the 50% inhibitory concentration (IC50) in test [1] was 0.491 µM; in test [2], greater than 10 µM.

On to `O=C(OCC(F)(F)F)N1Cc2ccc(-c3ncc(F)c(Nc4ccc5c(=O)[nH]ccc5c4)n3)cc2C1` [US12398118, Compound C72], for which the IC50 was 0.024 µM in test [1] and greater than 10 µM in test [2].

As to `O=C1NCCc2cc(Nc3nc(-c4cc5c(s4)CCN(C(=O)OCC(F)(F)F)C5)ncc3F)ccc21` [US12398118, Compound C75], the half-inhibitory concentration (IC50) is 0.037 µM in test [1] and greater than 10 µM in test [2].

As for `O=C(OC1CCC(F)(F)CC1)N1CCc2cc(-c3ncc(F)c(Nc4ccc5c(=O)[nH]ccc5c4)n3)ccc2C1` [US12398118, Compound C35], the values for the 50% inhibitory concentration (IC50) in test [1] and in test [2] were 0.093 µM and greater than 10 µM, respectively.

Regarding `CC(OC(=O)N1CCc2sc(-c3ncc(F)c(Nc4ccc5c(c4)CCNC5=O)n3)cc2C1)C(F)(F)F` (stereo not drawn) [US12398118, Compound C43], the IC50 in test [1] worked out at 0.071 µM.

As for `CC(C)(C)CC(=O)N1CCc2sc(-c3ncc(F)c(Nc4ccc5c(=O)[nH]ccc5c4)n3)cc2C1` [US12398118, Compound C52], the IC50 in test [1] is 0.028 µM; in test [2] it was greater than 10 µM.

On to `CC(C)(C)OC(=O)N1CCc2sc(-c3ncc(F)c(Nc4ccc5c(=O)[nH]ccc5c4)n3)cc2C1` [US12398118, Compound C28], for which the IC50 in test [1] was 0.006 µM; in test [2], greater than 10 µM.
